According to patent US7312244B2, “Polyamine analog-amino acid conjugates useful as anticancer agents” (Cellgate, Inc., priority 1999, dated 2007):

Key:
Format in all cases: cell-based
[1] = tested on: DuPro human prostate cancer cell line; assay: MTT assay, percent cell survival, DuPro; design: unit not given beside the values; conditions: DuPro cells, six days after drug treatment
Method: (§1) Polyamine- and polyamine analog-amino acid conjugates of the invention were tested for their ability to inhibit growth of various cancer cell lines. The procedures used for testing activity are similar to those used in International Patent Application WO 00/66587 and U.S. Pat. No. 5,889,061 and are described below.
(§2) Human breast cancer cell line MCF7 was grown in Richter's Improved Modified Eagle's Medium supplemented with 10% fetal bovine serum (FBS) and 2.2 g/L sodium bicarbonate. Human brain tumor cell line U251 MG-NCI was grown in Dulbecco's Modified Eagle's Medium supplemented with 10% FBS. Human lung cancer cell line A549 was grown in Ham's F-12K medium (Cellgro, Mediatech, Inc., Va.), supplemented with 10% FBS and 2 mM L-glutamine. Human colon cancer cell line HT129 was cultured in McCoy's 5A medium (Gibco, BRL, Gaithersburg, Md.) supplemented with 10% FBS. Human prostate cancer cell lines PC-3, LNCAP and DuPro were grown in RPMI 1640 Medium (Cellgro, Mediatech, Inc., Va.) supplemented with 10% FBS. […]
(§3) A conventional MTT assay was used to evaluate percent cell survival. […] A microplate reader (“EMAX”-brand, Molecular Devices, Sunnyvale, Calif.) set at 570 nm was used to determine the optical density of the cultures. Results are expressed as a ratio of the optical density in drug-treated wells to the optical density in wells treated with vehicle only.

[2] = tested on: PC-3 human prostate cancer cell line; assay: MTT assay, percent cell survival, PC-3; conditions: PC-3 cells, six days after drug treatment, in µM (unit assumed)
Method: as §1, §2, §3

[3] = tested on: LnCap human prostate cancer cell line; assay: MTT assay, percent cell survival, LnCap; conditions: LnCap cells, six days after drug treatment, in µM (unit assumed)
Method: as §1, §2, §3

[4] = tested on: DU145 human prostate cancer cell line; assay: MTT assay, percent cell survival, DU145; design: unit not given beside the values; conditions: DU145 cells, six days after drug treatment
Method: as §1, §2, §3

| Compound | ID50 DuPro [1] | ID50 PC-3 [2] | ID50 LnCap [3] | ID50 DU145 [4] |
| --- | --- | --- | --- | --- |
| CCNCCCCNCCCCNCCCCNCCCCN(CC)C(=O)C(N)CCC(N)=O (stereo not shown) [SL-11165] | >31.65 | 4.1 | >31.25 | – |
| CCNCCCCNCCCCNCCCCNCCCCNC(=O)CCN [SL-11143] | 13.75 | >31.25 | 6.4 | 0.06 |
